Laboratory results from BindingDB's records for doi:10.1021/acs.jmedchem.5b00801 (Duquesne University, 2015).

Experiments:
[1] = Binding affinity to human PCFT expressed in Chinese hamster R2/PCFT4 cells assessed as cell growth inhibition after 96 hrs by CellTiter-Blue assay
[2] = Binding affinity to human FRbeta expressed in Chinese hamster D4 cells assessed as cell growth inhibition after 96 hrs by CellTiter-Blue assay in presence of 200 nM folic acid
[3] = Binding affinity to human FRbeta expressed in Chinese hamster D4 cells assessed as cell growth inhibition after 96 hrs by CellTiter-Blue assay
[4] = Binding affinity to human RFC expressed in Chinese hamster PC43-10 cells assessed as cell growth inhibition after 96 hrs by CellTiter-Blue assay
[5] = Binding affinity to human FRalpha expressed in Chinese hamster RT16 cells assessed as cell growth inhibition after 96 hrs by CellTiter-Blue assay
[6] = Binding affinity to human FRalpha expressed in Chinese hamster RT16 cells assessed as cell growth inhibition after 96 hrs by CellTiter-Blue assay in presence of 200 nM folic acid

SMILES | IC50 [1] [nM] | IC50 [2] [nM] | IC50 [3] [nM] | IC50 [4] [nM] | IC50 [5] [nM] | IC50 [6] [nM]
Nc1nc(N)c2c(CCCc3cc(C(=O)N[C@@H](CCC(=O)O)C(=O)O)cs3)coc2n1 | > 1000 | > 1000 | 54 | > 1000 | – | –
Nc1nc2[nH]c(CCCc3cc(C(=O)N[C@@H](CCC(=O)O)C(=O)O)cs3)cc2c(=O)[nH]1 | 6.5 | 654 | 0.1 | 189 | 0.61 | 506
